Test results: PMC6508677, “Identification of druggable small molecule antagonists of the Plasmodium falciparum hexose transporter PfHT and assessment of ligand access to the glucose permeation pathway via FLAG-mediated protein engineering” (PLoS ONE, 2019)
pIC50: −log10 of the molar value. Where “and” joins values, the source holds several entries; their conditions need not be identical. Equal entries are not always repeated.

Molecular target: T1, PfHT (Plasmodium falciparum, UniProt Q7KWJ5)
T1 sequence (Q7KWJ5 1-504): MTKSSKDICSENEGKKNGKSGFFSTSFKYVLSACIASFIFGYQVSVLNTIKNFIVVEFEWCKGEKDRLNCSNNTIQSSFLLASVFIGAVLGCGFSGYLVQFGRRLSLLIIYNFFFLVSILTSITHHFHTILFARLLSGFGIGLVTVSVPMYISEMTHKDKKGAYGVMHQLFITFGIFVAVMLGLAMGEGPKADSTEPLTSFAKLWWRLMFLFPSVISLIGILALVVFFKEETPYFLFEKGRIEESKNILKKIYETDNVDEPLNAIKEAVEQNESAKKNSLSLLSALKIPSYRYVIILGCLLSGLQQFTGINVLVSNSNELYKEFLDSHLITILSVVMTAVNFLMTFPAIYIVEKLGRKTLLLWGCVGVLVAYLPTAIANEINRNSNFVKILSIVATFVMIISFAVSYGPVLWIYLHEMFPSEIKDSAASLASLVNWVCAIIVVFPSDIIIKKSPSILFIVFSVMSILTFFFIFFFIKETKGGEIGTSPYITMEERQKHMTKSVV
Test: 2-DG uptake by HEK293 cells overexpressing PfHT
Type: cell-based
Set-up: expressed in transfected cells; host or cells: HEK293 (HEK293-FLIP, native hGLUT1 knocked down by shRNA)
Conditions: for remaining activity at 0.001 µM: 0.001 µM compound; for remaining activity at 0.3125 µM: 0.3125 µM compound (0.313 in Fig 1 sheet for WU-1); for remaining activity at 0.625 µM: 0.625 µM compound; for remaining activity at 1.25 µM: 1.25 µM compound; for remaining activity at 2.5 µM: 2.5 µM compound; for remaining activity at 5 µM: 5 µM compound; for remaining activity at 10 µM: 10 µM compound; for remaining activity at 20 µM: 20 µM compound; for remaining activity at 40 µM: 40 µM compound; for pIC50: IC50 for inhibition of 2-DG uptake; for remaining activity at 80 µM: 80 µM compound; for remaining activity at 160 µM: 160 µM compound; for remaining activity at 225 µM: 225 µM compound
Excerpt: Generation of HEK293 cells overexpressing PfHT and human GLUTs 1–4 were described elsewhere. Briefly, HEK293 cells were transfected with pcDNA3.1 FLII12Pglu-7006 (Addgene), containing the fluorescence resonance energy transfer (FRET) glucose sensor (HEK293-FLIP) and PfHT, human GLUT1 (hGLUT1), hGLUT2, hGLUT3, hGLUT4, hGLUT5 or hGLUT8 using Optifect (Life Technologies) according to manufacturer’s specifications. To increase retention of GLUT8 at the plasma membrane, the dileucine sorting signal E^7E^8XXXLL was modified to R^7R^8XXXLL as described in [17]. Stable transfectants were selected for G418 and hygromycin resistance to select for FRET sensor and hexose transporter, respectively. HEK293-FLIP cells were also used to generate cells stably transfected with FLAG-tagged PfHT (FTPfHT). FLAG tag ([…]) followed by a triple glycine linker and a tobacco etch virus (TEV) protease site (ENLYFQS) followed by a triple glycine linker was added to the N-terminus of PfHT via PCR [18] using Phusion Hot Start II High-Fidelity DNA Polymerase (Fisher Scientific). Single clones were selected by comparing their abilities to transport glucose as assayed via FRET and radiolabeled hexose uptake. In all cell lines, except for HEK293 cells overexpressing hGLUT1 and hGLUT5, native hGLUT1 was knocked down using shRNA as described elsewhere. Transcript levels of the individual GLUTs expressed in each cell line are as described in [13, 15] and in S1 Fig.
Glucose uptake by P. falciparum was performed essentially as described. P. falciparum strain 3D7 was cultured in 100 mm tissue culture dishes (Techno Plastic Products) in a 2% suspension of human erythrocytes and RPMI 1640 medium until reaching > 7.5% parasitemia. Cells were pelleted via centrifugation and resuspended in RPMI 1640 medium. To determine the uptake of radiolabeled glucose into the parasite, parasites were isolated from infected erythrocytes by permeablization with saponin (0.05 w/v), followed by centrifugation, aspiration of supernatant and washing of the pellet 3X with saline solution (135 mM NaCl, 2 mM KCl, 25 mM HEPES, 0.2 mM glucose and 1 mM MgCl2; pH 7.1) to remove cellular debris. WU-1 or DMSO vehicle were added to 100 μl parasites (resuspended in saline) 5 min prior to the addition of 100 μl [^14C]2-DOG (0.2- μCi/ml final concentration). 2-DG uptake was stopped after 2 min by layering the entire reaction over 300 μl of an oil mixture (5:4 mix of dibutyl phthalate / dinonyl phthalate) in Eppendorf tubes and centrifuged at 15,850 × g for 2 mins. The ratio of the estimated intracellular concentration of radiolabel relative to the extracellular concentration were calculated as described. Uptake of radiolabeled hexose into HEK293 cells was measured in glucose-free HBSS as described previously. Briefly, cells were plated at 400,000 cells/well overnight at 37°C in 24-well plates pre-treated with PEI. After 30-min incubation at 37°C in glucose-free HBSS in the presence of vehicle or increasing concentrations of compound, 2-DG uptake was measured in glucose-free HBSS for 4 min at 37°C. Cultures were washed in ice-cold 1X PBS and lysed in 0.1% Triton X-100 in 1X PBS. Radiolabeled hexose uptake was determined by liquid scintillation counting (Ultima Gold, Thermo Fisher) and normalized to total protein per well. Uptake data are plotted as percent uptake relative to vehicle-treated cells. Kinetic analyses were performed using the indicated concentrations of substrate and WU-1, with quenching of uptake after 1 min incubation. Incubation times had been previously determined as being in the linear range of time-dependent radiolabeled hexose uptake (2 min for 2-DG uptake into freed parasites; 2 and 4 min for D-Frc and 2-DG uptake HEK cell lines, respectively). Data were fit by least squares nonlinear regression analysis using GraphPad Prism 6.0 software.

[1] = HEK293, 4 min, read-out: 2-DG uptake (percent uptake relative to vehicle), AVE, PfHT
[2] = HEK293, 4 min, read-out: % Inhibition of 2-DG uptake vs vehicle
[3] = HEK293 cells overexpressing PfHT, mean/reported value

SMILES	remaining activity at 0.001 µM [1]	remaining activity at 0.3125 µM [1]	remaining activity at 0.625 µM [1]	remaining activity at 1.25 µM [1]	remaining activity at 2.5 µM [1]	remaining activity at 5 µM [1]	remaining activity at 10 µM [1]	remaining activity at 20 µM [1]	remaining activity at 40 µM [1]	pIC50 [3]	remaining activity at 80 µM [1]	remaining activity at 160 µM [1]	remaining activity at 225 µM [1]	further results
COc1c(Br)cc([N+](=O)[O-])c(OC)c1C(=O)NC(=O)Nc1c(C)cccc1Cl [WU-2, 3-(3-bromo-2,6-dimethoxy-5-nitrobenzoyl)-1-(2-chloro-6-methylphenyl)urea]	97.7%	85%	75.7%	68.5%	62.4%	50.6%	39.9%	26.3%	17.3%	5.38	–	–	–	Maximum Inhibition (%) (2-DG uptake, PfHT cell line): 84.4%; remaining activity at 0.09375 µM (HEK293, 4 min, read-out: 2-DG uptake (percent uptake relative to vehicle), AVE, PfHT, 0.09375 µM compound): 96%; remaining activity at 0.1875 µM (HEK293, 4 min, read-out: 2-DG uptake (percent uptake relative to vehicle), AVE, PfHT, 0.1875 µM compound): 93.9%; remaining activity at 0.375 µM (HEK293, 4 min, read-out: 2-DG uptake (percent uptake relative to vehicle), AVE, PfHT, 0.375 µM compound): 79.7%; inhibition at 5 µM [2]: 47.9%; pIC50 (individual experiments, HEK293 PfHT, Expt 1-3): 5.52 and 5.42 and 5.25
COc1cc(/C=C2\COC/C(=C\c3cc(OC)c(OC)c(OC)c3)C2=O)cc(OC)c1OC [WU-5, (3E,5E)-3,5-bis[(3,4,5-trimethoxyphenyl)methylidene]oxan-4-one]	100%	92.8%	89.8%	72.2%	61.4%	48.9%	32%	30.9%	–	5.72	32.8%	34.5%	35.8%	inhibition at 2.5 µM [2]: 47%
COc1cc(/C=N/NC(=O)c2cc(-c3ccccc3)sc2N)cc(OC)c1OC [WU-3, 2-amino-5-phenyl-N'-[(E)-(3,4,5-trimethoxyphenyl)methylidene]thiophene-3-carbohydrazide]	100%	109%	104%	103%	104%	87.6%	62%	42.7%	42.2%	5.04	37.1%	31.1%	18.9%	inhibition at 10 µM [2]: 51.8%
